Key:
BTK = biological target: T1, BTK (Homo sapiens, UniProt Q06187); assay: BTK kinase assay (HotSpot, 33P ATP); type: biochemical; details: for BTK @ 0.01 μM (% Inh): 0.01 μM compound; for BTK @ 0.01 μM (% Inh) / BTK @ 0.1 μM (% Inh): 10 μM ATP; for BTK @ 0.1 μM (% Inh): 0.1 μM compound
T1 construct: purchased Reaction Biology Corporation
Procedure, shortened: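 In 20 mM Hepes (pH 7.5) with 10 mM MgCl2, 1 mM EGTA, 0.1 mM Na3VO4, 2 mM DTT, 0.02% Brij35, 0.02 mg/mL BSA and 1% DMSO, kinase and substrate were exposed to ten compound doses for 15–20 min.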

PI3Kδ = biological target: T2, PI3Kδ (Homo sapiens, UniProt O00329); assay: PI3Kδ kinase assay (HTRF, PIP3 detection); type: biochemical; details: for PI3Kδ @ 0.01 μM (% Inh): 0.01 μM compound; for PI3Kδ @ 0.01 μM (% Inh) / PI3Kδ @ 0.1 μM (% Inh): 10 μM ATP; for PI3Kδ @ 0.1 μM (% Inh): 0.1 μM compound; for IC50: 10 dose IC50, 10 μM ATP
T2 construct: purchased Reaction Biology Corporation
Procedure, shortened: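 PIP3 formation read by loss of energy transfer as it displaces biotin-PIP3 from a Eu anti-GST/GST-PH/streptavidin-APC complex, calibrated against PIP3 standards.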

CD69+B220+ cells = assay: B cell activation assay (IgD-stimulated splenocytes, CD69+B220+ cells by FACS); type: cell-based; details: mouse splenocytes, IgD 3 μg/mL, 4 h; for CD69 @ 100 nM (% Inh): 100 nM compound
Method: 1 Female mouse approximately 2 months old was euthanized with CO2 and the spleen removed. The tissue was homogenized with a polished glass microscope slide. The cells were collected in 5 mL complete medium (RPMI+10% FBS+pen/strep), placed in a 15 mL falcon tube and centrifuged at 500×g for 5 min. The supernatant was discarded and the pellet was resuspended in 3 mL of ACK lysis buffer (NH4Cl 0.17M, KHCO3 10 mM, EDTA-Na2 0.1 mM, pH 7.2), incubated at 37° C. for 5 min. 2 mL complete medium was added and the mixture centrifuged at 500×g for 5 min. The supernatant was discarded and the pellet resuspended in 1 mL complete medium. The mixture was passed through a […] cell strainer and collect in 50 mL falcon tube. Enough medium was added to have a total of 10 mL. The cells were counted and seeded in 24 or 48-well plate in 1 mL complete medium at 10^6 cells/mL. The plate was placed in a 37° C. incubator for 15 min. The cells were treated for 30 min at 37° C. with 100 nM test compound dissolved in 100% DMSO. 3 μL IgD (Accurate chemical and scientific corp.) was added at a final concentration of 3 μg/mL and the mixture incubated at 37° C. for 4 h. The cells were collected in 1.5 mL eppendorf tubes, centrifuged at 500×g for 5 min and then resuspended in 100 μL of PBS+2% FBS. The following antibodies were added: α-B220 PE (pharmingen #553090), α-CD69 APC (pharmingen #60689), live/dead fixable aqua dead cell stain kit (life technologies #L34957) all at 1:300, and the mixture incubated for 15 min at 4° C. in the dark. To this was added 900 μL of PBS+2% FBS and the mixture centrifuged at 500×g for 5 min. The supernatant was removed and the pellet resuspended in 300 μL of PBS+2% FBS and mixed well. The mixture was transferred to a cytometer tube. The samples were run in the FACS Canto II cytometer and quantified by the number of CD69+B220+ cells as a percentage of the total number of B220+ alive cells.

T2 sequence (O00329 whole entry): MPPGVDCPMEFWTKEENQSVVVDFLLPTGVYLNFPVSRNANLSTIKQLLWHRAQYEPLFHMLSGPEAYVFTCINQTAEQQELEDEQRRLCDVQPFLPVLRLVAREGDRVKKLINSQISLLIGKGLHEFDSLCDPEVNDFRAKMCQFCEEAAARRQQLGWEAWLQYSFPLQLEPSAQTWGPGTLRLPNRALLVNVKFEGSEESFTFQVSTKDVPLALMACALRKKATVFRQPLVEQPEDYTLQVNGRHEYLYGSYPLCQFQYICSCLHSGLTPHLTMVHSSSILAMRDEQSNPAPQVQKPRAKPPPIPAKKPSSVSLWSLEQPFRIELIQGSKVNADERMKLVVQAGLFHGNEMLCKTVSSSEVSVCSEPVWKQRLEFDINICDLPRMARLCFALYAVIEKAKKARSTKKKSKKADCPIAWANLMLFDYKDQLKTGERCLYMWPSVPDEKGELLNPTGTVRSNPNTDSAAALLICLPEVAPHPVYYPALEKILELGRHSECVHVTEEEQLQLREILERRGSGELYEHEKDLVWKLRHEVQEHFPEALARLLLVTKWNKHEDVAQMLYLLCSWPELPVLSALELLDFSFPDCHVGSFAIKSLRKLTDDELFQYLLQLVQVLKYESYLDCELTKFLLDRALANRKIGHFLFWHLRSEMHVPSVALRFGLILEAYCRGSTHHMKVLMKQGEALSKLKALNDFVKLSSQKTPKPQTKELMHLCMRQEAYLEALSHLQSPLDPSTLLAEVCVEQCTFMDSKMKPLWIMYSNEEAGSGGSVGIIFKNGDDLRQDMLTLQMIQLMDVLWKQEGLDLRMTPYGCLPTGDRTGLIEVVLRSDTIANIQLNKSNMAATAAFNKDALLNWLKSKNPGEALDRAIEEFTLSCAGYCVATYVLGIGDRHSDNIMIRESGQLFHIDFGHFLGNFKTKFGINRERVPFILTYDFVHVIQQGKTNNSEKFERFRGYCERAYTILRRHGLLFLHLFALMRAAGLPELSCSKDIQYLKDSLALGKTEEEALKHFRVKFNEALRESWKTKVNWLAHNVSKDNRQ
T2 sequence (P27986 whole entry partner): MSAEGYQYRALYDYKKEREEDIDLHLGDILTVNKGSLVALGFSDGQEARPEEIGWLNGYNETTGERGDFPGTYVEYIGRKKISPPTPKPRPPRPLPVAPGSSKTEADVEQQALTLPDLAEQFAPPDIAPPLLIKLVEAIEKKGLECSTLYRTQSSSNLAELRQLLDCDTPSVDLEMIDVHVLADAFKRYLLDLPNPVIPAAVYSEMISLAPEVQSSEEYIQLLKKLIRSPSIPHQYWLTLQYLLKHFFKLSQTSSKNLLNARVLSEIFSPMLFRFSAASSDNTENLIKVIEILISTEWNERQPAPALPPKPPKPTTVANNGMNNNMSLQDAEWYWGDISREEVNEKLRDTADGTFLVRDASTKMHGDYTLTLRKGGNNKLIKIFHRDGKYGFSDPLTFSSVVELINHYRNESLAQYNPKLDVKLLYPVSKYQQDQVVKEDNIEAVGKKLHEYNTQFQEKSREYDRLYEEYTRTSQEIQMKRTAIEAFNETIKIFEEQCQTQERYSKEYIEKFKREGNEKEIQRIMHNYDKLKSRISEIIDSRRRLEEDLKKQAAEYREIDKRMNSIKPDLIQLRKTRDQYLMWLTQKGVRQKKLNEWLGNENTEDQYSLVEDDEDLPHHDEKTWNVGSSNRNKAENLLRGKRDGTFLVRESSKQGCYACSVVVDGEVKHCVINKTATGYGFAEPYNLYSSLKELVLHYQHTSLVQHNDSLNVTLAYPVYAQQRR
T1 sequence (Q06187 whole entry): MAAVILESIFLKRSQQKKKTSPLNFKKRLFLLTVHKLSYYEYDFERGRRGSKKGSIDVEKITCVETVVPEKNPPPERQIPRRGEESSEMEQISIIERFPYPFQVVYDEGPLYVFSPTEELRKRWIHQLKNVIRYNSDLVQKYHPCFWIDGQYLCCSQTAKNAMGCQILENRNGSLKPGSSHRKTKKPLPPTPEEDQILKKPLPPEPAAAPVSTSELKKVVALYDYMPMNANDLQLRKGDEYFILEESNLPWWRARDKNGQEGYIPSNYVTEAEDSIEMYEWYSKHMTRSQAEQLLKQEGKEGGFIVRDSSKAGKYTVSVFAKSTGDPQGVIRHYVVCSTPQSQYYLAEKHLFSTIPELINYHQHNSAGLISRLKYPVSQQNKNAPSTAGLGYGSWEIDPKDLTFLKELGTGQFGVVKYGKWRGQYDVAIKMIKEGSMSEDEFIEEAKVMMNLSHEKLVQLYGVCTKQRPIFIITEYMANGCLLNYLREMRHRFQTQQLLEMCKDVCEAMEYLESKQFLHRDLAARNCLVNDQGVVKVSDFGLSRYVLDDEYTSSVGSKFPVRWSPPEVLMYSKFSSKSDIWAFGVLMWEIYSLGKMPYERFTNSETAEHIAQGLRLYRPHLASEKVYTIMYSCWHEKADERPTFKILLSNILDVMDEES

Row | SMILES | BTK @ 0.01 μM (% Inh) (BTK) | BTK @ 0.1 μM (% Inh) (BTK) | PI3Kδ @ 0.01 μM (% Inh) (PI3Kδ) | PI3Kδ @ 0.1 μM (% Inh) (PI3Kδ) | CD69 @ 100 nM (% Inh) (CD69+B220+ cells) | IC50 (BTK; 10 dose IC50, 10 μM ATP) [nM] | IC50 (PI3Kδ) [nM] | IC50 (CD69+B220+ cells; Splenocyte) [nM]
1 | Nc1cc(-c2nn(C3CCc4ccccc4C3)c3ncnc(N)c23)cc(F)c1F (centres unmarked) [compound 122, 3-(3-amino-4,5-difluorophenyl)-1-(1,2,3,4-tetrahydronaphthalen-2-yl)-1H-pyrazolo[3,4-d]pyrimidin-4-amine] | 12.72 | 53.15 | −3.68 | 25.32 | 2.58 ± 4.93 (n = 3) % Inh |  |  | 
2 | Nc1ncnc2c1c(-c1cc(O)c(F)c(C(F)(F)F)c1)nn2C1CCc2ccccc2C1 (centres unmarked) [compound 123, 5-[4-amino-1-(1,2,3,4-tetrahydronaphthalen-2-yl)-1H-pyrazolo[3,4-d]pyrimidin-3-yl]-2-fluoro-3-(trifluoromethyl)phenol] | 1.82 | −0.78 | 59.11 | 88.87 | 29.22 ± 4.64 (n = 3) % Inh |  |  | 
3 | Nc1ncnc2c1c(-c1cc(F)c3c(c1)NCCO3)nn2C1CCc2ccccc2C1 (centres unmarked) [compound 124, 3-(8-fluoro-3,4-dihydro-2H-1,4-benzoxazin-6-yl)-1-(1,2,3,4-tetrahydronaphthalen-2-yl)-1H-pyrazolo[3,4-d]pyrimidin-4-amine] | 4.47 | 34.18 | 8.34 | 52.39 | 14.44 ± 2.64 (n = 3) % Inh |  |  | 
4 | Nc1ncnn2c(C3Cc4ccccc4C3)cc(-c3cc(O)c(F)c(F)c3)c12 [compound 125, 5-[4-amino-7-(2,3-dihydro-1H-inden-2-yl)pyrrolo[2,1-f][1,2,4]triazin-5-yl]-2,3-difluorophenol] | 39.05 | 80.31 | 22.51 | 62.27 | 2.68 ± 2.32 (n = 3) % Inh | 14.2 | 32.8 | 
5 | Nc1ncnc2c1c(-c1cc(O)c(F)c(F)c1)nn2C1CCc2ncccc21 (centres unmarked) [compound 126, 5-(4-amino-1-{5H,6H,7H-cyclopenta[b]pyridin-5-yl}-1H-pyrazolo[3,4-d]pyrimidin-3-yl)-2,3-difluorophenol] | 8.16 | 8.18 | 4.71 | 2.3 | 12.35 ± 7.52 (n = 3) % Inh |  |  | 
6 | Nc1ncnc2c1c(-c1cc(O)c(F)c(F)c1)nn2C1Cc2ccc(F)cc2C1 (centres unmarked) [compound 128, 5-[4-amino-1-(5-fluoro-2,3-dihydro-1H-inden-2-yl)-1H-pyrazolo[3,4-d]pyrimidin-3-yl]-2,3-difluorophenol] | 19.98 | 63.94 | 56.4 | 91.22 | 49.29 ± 5.74 (n = 3) % Inh |  |  | 
7 | Nc1ncnc2c1c(-c1cc(F)c3c(c1)NC(=O)CO3)nn2C1Cc2ccccc2C1 [compound 129, 6-[4-amino-1-(2,3-dihydro-1H-inden-2-yl)-1H-pyrazolo[3,4-d]pyrimidin-3-yl]-8-fluoro-3,4-dihydro-2H-1,4-benzoxazin-3-one] | 6.57 | 18.99 | 8.3 | 19.42 | 12.5 ± 13.16 (n = 3) % Inh |  |  | 
8 | N#Cc1cc(-c2nn(C3CCc4ccccc4C3)c3ncnc(N)c23)cc(O)c1F (centres unmarked) [compound 130, 5-[4-amino-1-(1,2,3,4-tetrahydronaphthalen-2-yl)-1H-pyrazolo[3,4-d]pyrimidin-3-yl]-2-fluoro-3-hydroxybenzonitrile] | −1.03 | −0.64 | 53.08 | 90.11 | 67.53 ± 15.54 (n = 3) % Inh |  | 0.269 | 104.5 ± 0.7
9 | NC(=O)c1cc(-c2nn(C3CCc4ccccc4C3)c3ncnc(N)c23)cc(O)c1F (centres unmarked) [compound 131, 5-[4-amino-1-(1,2,3,4-tetrahydronaphthalen-2-yl)-1H-pyrazolo[3,4-d]pyrimidin-3-yl]-2-fluoro-3-hydroxybenzamide] | −2.45 | 0.17 | 13.11 | 53.68 | 15.73 ± 14.11 (n = 3) % Inh |  |  | 
10 | NC(=O)c1cc(-c2nn(C3Cc4ccccc4C3)c3ncnc(N)c23)cc(O)c1F [compound 132, 5-[4-amino-1-(2,3-dihydro-1H-inden-2-yl)-1H-pyrazolo[3,4-d]pyrimidin-3-yl]-2-fluoro-3-hydroxybenzamide] | 0.44 | 5.3 | 13.73 | 56.84 | 27.67 ± 13.46 (n = 3) % Inh |  |  | 
11 | NCc1cccc(-c2nn(C3Cc4ccccc4C3)c3ncnc(N)c23)c1 [compound 133, 3-[3-(aminomethyl)phenyl]-1-(2,3-dihydro-1H-inden-2-yl)-1H-pyrazolo[3,4-d]pyrimidin-4-amine] | −0.81 | −0.94 | −1.05 | 1.17 | 6.8 ± 14.52 (n = 3) % Inh |  |  | 

— US20210317140A1, “Heterocyclic Compounds and Methods of Use” (MEDIVATION TECHNOLOGIES, INC, priority 2013, published 2021)
